Patent publication US20040152903A1, “6-chloro-3-pyridylmethylpropylamine derivatives, preparation process thereof and bactericides” (priority 2004, published 2004)

Columns and labels:
[1] = tested on: Pyrenophora graminea; assay: Antifungal activity test (PDA plate, hypha extension inhibition); format: cell-based; conditions: 12.5 ppm in PDA culture medium
Experimental: (§1) (Antifungal Activity Test against Various Pathogenic Fungi) For each of the compounds I-1 to 27 of the present invention and the comparative compounds (a) to (d), (m-1) and (m-3), 20 mg was weighed and dissolved in 2 ml of dimethylsulfoxide, and a double dilution row in 10 steps was prepared by further using dimethylsulfoxide. A 0.6 ml portion of these solutions was each added to 60 ml of a PDA culture medium (potato-dextrose-agar culture medium) at about 60° C., they were well mixed in a 100 ml Erlenmeyer flask, the solution was poured into a schale and was solidified, the plate culture media containing the compounds according to the present invention with final concentrations of 100, 50.0, 25.0, 12.5, 6.3, 3.2, 1.6, 0.8, 0.4 and 0.2 mg/l were prepared. On the other hand, the specimen bacteria cultured on the plate culture media beforehand was punched by a 4 mm diameter cork borer, and was inoculated on the plate culture media containing the aforementioned chemicals. After the inoculation, the bacteria were cultured at the optimum growth temperature of each bacterium for 1 to 7 days (for this optimum growth temperature, LIST OF CULTURES 1996 Microorganisms 10th edition published by Fermentation Research Institute (Foundation) can be referred to.), and the growth of the bacteria was measured by the diameter of a colony. […]

[2] = tested on: cucumber powdery mildew; assay: Test of control effect on cucumber powdery mildew; format: in vivo; conditions: wettable powder 100 mg/l, 100 liters/10 a, cucumber (Sagamihanpakufushinari), examined 9th to 14th day after inoculation
Experimental: (Test of Control Effect on Cucumber Powdery Mildew) The wettable powders formulated by using each of the compounds I-1 to 27 according to the present invention and the comparative compounds (a) to (d), (m-1) and (m-3) were each diluted and suspended with water to a predetermined concentration (100 mg/l), the suspension was sprinkled over the first to the second leaf period cucumbers (variety: “[…]”) cultivated by using a square plastic pot (size: 6.4 cm×6.4 cm) in a rate of 100 liters/10 a (ares). After the sprinkled leaves were air-dried, the spores were inoculated over the leaves by sprinkling the same with a brush from an infected leaf, a disease was contracted in a glass house (temperature: 20 to 24° C., relative humidity: 20 to 70 RH). On the 9th to 14th day after the inoculation, the infection degree was examined according to the following scale and the control value of each compound was calculated by the following calculation equation 2: (Examination Scale) [table]

[3] = tested on: Venturia inaequalis; assay: Antifungal activity test (PDA plate, hypha extension inhibition); format: cell-based; conditions: 3.2 ppm in PDA culture medium
Experimental: as §1

[4] = tested on: wheat powdery mildew; assay: Test of control effect on wheat powdery mildew; format: in vivo; parameters: Control Value: scale not given here; conditions: wettable powder 125 mg/l, 100 liters/10 a, wheat seedlings (Nourin 64), examined 9th to 14th day after inoculation
Experimental: (Test of Control Effect on Wheat Powdery Mildew) Wettable powders were prepared from compounds of the present invention I-1 to I-27 and comparative compounds (a) to (d), (m-1) and (m-3). The obtained wettable powder was diluted and suspended with water to provide the predetermined concentration (125 mg/l), and was sprinkled onto seedlings of wheat (variety: “Nourin 64”) at the first to the second leaf period which were cultivated using square plastic pots (size: 6.4 cm×6.4 cm) in a rate of 100 liters/10 a (ares). After drying the sprinkled leaves with air, a suspension of wheat powdery mildew spores taken from infected leaves was inoculated by spraying onto the sprinkled leaves. They were supervised in a green house (temperature: 20 to 24° C., relative humidity: 20 to 70 RH). On the 9th to 14th day after the inoculation, the infection degree was examined according to the following scale and the control value of each compound was calculated by the following calculation equation 1. [table]

Structure (SMILES) | Growth Inhibition P.g (12.5) [1] | Control Value [2] | Growth Inhibition V.i (3.2) [3] | Control Value [4]
CC(Cc1ccc(C(F)(F)F)c(F)c1F)CN(C)Cc1ccc(Cl)nc1 (centres unmarked) [Compound I-10] | 4 (Hypha extension inhibition rate of from 70% to less than 90%) | 100 | 4 (Hypha extension inhibition rate of from 70% to less than 90%) | 100
CC(Cc1ccc2c(c1)OC(F)(F)O2)CN(C)Cc1ccc(Cl)nc1 (centres unmarked) [Compound I-24] | 5 (Hypha extension inhibition rate of 90% or more) | 100 | 4 (Hypha extension inhibition rate of from 70% to less than 90%) | 100
